US8563559B2 (Rigel Pharmaceuticals, Inc., priority 2006, dated 2013)

The molecules below were run against T1, Axl (Homo sapiens, UniProt P30530) (assay: Phospho-AKT in-cell Western assay (inhibition of Axl activity)). Details: Table 1, formula (Ia); Hela cells, Axl antibody cross-linking stimulation, phospho-Akt chemiluminescence normalized to relative cell number.
T1 construct: endogenous in cells; host or cells: HeLa
T1 sequence (P30530 26-894): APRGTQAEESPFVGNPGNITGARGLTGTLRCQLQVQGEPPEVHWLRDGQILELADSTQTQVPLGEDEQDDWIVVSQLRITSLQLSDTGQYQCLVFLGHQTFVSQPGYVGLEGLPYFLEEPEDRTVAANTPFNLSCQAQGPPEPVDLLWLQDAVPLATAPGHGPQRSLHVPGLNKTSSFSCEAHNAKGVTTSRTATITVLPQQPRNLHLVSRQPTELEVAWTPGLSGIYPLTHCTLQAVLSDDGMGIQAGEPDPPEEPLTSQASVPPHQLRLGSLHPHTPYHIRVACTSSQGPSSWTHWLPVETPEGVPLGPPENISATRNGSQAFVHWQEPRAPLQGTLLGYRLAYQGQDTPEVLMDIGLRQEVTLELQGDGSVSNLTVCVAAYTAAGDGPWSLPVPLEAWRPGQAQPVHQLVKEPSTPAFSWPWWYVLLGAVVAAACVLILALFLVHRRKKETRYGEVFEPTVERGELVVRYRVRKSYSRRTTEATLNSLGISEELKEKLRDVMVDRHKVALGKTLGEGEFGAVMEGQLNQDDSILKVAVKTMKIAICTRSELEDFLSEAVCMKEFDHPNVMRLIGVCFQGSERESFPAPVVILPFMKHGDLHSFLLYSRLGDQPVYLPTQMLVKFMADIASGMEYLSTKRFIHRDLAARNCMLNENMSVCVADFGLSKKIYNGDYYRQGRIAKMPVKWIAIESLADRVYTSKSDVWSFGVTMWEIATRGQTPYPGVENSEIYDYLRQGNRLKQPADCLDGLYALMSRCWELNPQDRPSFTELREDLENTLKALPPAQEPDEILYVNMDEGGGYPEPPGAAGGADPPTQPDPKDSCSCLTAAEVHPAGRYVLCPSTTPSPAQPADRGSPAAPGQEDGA
Assay type: cell-based
Method: The compounds of the invention were tested in the following assay for their ability to inhibit Axl activity.
Phospho-AKT in-Cell Western Assay
• Cell culture plate: 96 well assay plate (Corning 3610), white, clear bottom, tissue-culture treated. • Cells: Hela cells. • Starvation medium: For Axl stimulation: 0.5% FCS (fetal calf serum) in DMEM, plus Axl/Fc (extracellular domain of AXL fused to immunoglobulin Fc region) (R&D, 154-AL) 500 ng/mL. • For EGF (epidermal growth factor) stimulation: 0.5% FCS in DMEM (Dulbecco's modified Eagles medium). • Poly-L-Lysine 0.01% solution (the working solution): 10 μg/ml, dilute In PBS (phosphate buffered saline). • Axl antibody cross-linking: • 1st: Mouse anti-Axl (R&D, MAB154). • 2nd: Biotin-SP-conjugated AffiniPure goat anti-mouse IgG (H+L) (Jackson ImmunoResearch #115-065-003). • Fixing buffer: 4% formaldehyde in PBS. • Wash buffer: 0.1% TritonX-100 in PBS. • Quenching buffer: 3% H2O2, 0.1% Azide in wash buffer, Azide and hydrogen peroxide 1(H2O2) are added fresh. • Blocking buffer: 5% BSA in TBST (tris buffered saline plus 0.1% Tween 20). • Primary antibody: Rabbit anti-human Phospho-Akt antibody (Cell Signaling 9271): 1×250 diluted in blocking buffer. • Secondary antibody: HRP (horse radish peroxidase)-conjugated Goat anti-Rabbit secondary, stock solution: Jackson ImmunoResearch (Goat anti-Rabbit HRP, #111-035-144) 1:1 diluted in glycerol, store at −20° C. The working solution: 1×2000 dilution of stock in blocking buffer. • Chemiluminescent working solution (Pierce, 37030): SuperSignal ELISA (enzyme linked immunosorbant assay) Pico Chemiluminescent substrate. • Crystal Violet solution: Stock: 2.5% Crystal violet in methanol, filtered and kept at ambient temperature. The working solution: dilute the stock 1:20 with PBS immediately before use. • 10% SDS: working solution: 5% SDS (sodium dodecylsulfate), diluted in PBS Methods: Day 1:
A 96 well TC (tissue culture treated) plate was coated with 10 μg/mL poly-L-Lysine at 37° C. for 30 min, washed twice with PBS, and air-dried for 5 minutes before cells were added. Hela cells were seeded at 10,000 cells/well and the cells were starved in 100 μL starvation medium containing Axl/Fc for 24 hrs.
The cells were pre-treated with test compounds by adding 100 μL of 2× test compound to the starvation medium on the cells. The cells were incubated at 37° C. for 1 hr before stimulation.
The cells were stimulated by Axl-antibody cross-linking as follows: A 5×1st/2nd Axl antibody mixture was made (37.5 μg/mL 1st/100 μg/mL 2nd) in starvation medium and nutated at 4° C. with thorough mixing for 1-2 hours for clustering. The resulting mix was warmed to 37° C. 50 μL of 5×Axl 1st/2nd of antibody cluster was added to the cells and the cells were incubated at 37° C. for 5 min.
After 5 minutes stimulation, the plate was flicked to remove medium and the plate was tapped onto paper towels. Formaldehyde (4.0% in PBS, 100 μL) was added to fix the cells and the cells were incubated at ambient temperature for 20 min without shaking.
The cells were washed with a plate washer buffer to remove the formaldehyde solution. The plate was flicked to removed excess wash buffer and tapped onto paper towels. Quenching buffer (100 μL) was added to each well and the cells were incubated at ambient temperature for 20 minutes without shaking.
The cells were washed with a plate washer buffer to remove the quenching buffer. Blocking buffer (100 μL) was added and the cells were incubated at ambient temperature for at least an hour with gentle shaking.
The cells were washed with a plate washer buffer and diluted primary antibody (50 μL) was added to each well (blocking buffer was added to the negative control wells instead). The plates were incubated overnight at 4° C. with gentle shaking.
The wash buffer was removed, diluted secondary antibody (100 μL) was added, and the cells were incubated at ambient temperature for 1 hour with gentle shaking. […]
In the case of `CNC(=O)[C@H]1C[C@H]2C[C@H](C2(C)C)[C@@]1(C)Nc1nc(Nc2ccc(N3CCN(S(C)(=O)=O)CC3)c(C(F)(F)F)c2)ncc1F` [Compound 37, (1R,2R,3S,5R)-2-(5-fluoro-2-(3-trifluoromethyl-4-(4-methylsulfonylpiperazin-1-yl)phenylamino)pyrimidin-4-ylamino)-N,2,6,6-tetramethylbicyclo[3.1.1]heptane-3-carboxamide], the IC50 is reported as > 20000 nM.
For `CNC(=O)[C@H]1C[C@H]2C[C@H](C2(C)C)[C@@]1(C)Nc1nc(Nc2ccc(N3CCN(C(C)=O)CC3)c(Cl)c2)ncc1F` [Compound 38, (1R,2R,3S,5R)-2-(5-fluoro-2-(3-chloro-4-(4-acetylpiperazin-1-yl)phenylamino)pyrimidin-4-ylamino)-N,2,6,6-tetramethylbicyclo[3.1.1]heptane-3-carboxamide], the IC50 was 1000 to 10000 nM.
`CNC(=O)[C@H]1C[C@H]2C[C@H](C2(C)C)[C@@]1(C)Nc1nc(Nc2ccc(N3CCN(C(C)=O)CC3)c(C(F)(F)F)c2)ncc1F` [Compound 39, (1R,2R,3S,5R)-2-(5-fluoro-2-(3-trifluoromethyl-4-(4-acetylpiperazin-1-yl)phenylamino)pyrimidin-4-ylamino)-N,2,6,6-tetramethylbicyclo[3.1.1]heptane-3-carboxamide] was tested, and the IC50 was > 20000 nM.
`CNC(=O)[C@H]1C[C@H]2C[C@H](C2(C)C)[C@@]1(C)Nc1nc(Nc2ccc(OCCN3CCCC3)cc2)ncc1F` [Compound 40, (1R,2R,3S,5R)-2-(5-fluoro-2-(4-(2-(pyrrolidin-1-yl)ethoxy)phenylamino)pyrimidin-4-ylamino)-N,2,6,6-tetramethylbicyclo[3.1.1]heptane-3-carboxamide] was tested, and the IC50 was 1000 to 10000 nM.
`CNC(=O)[C@H]1C[C@H]2C[C@H](C2(C)C)[C@@]1(C)Nc1nc(Nc2ccc(N3CCN(CCO)CC3)cc2)ncc1Cl` [Compound 41, (1R,2R,3S,5R)-2-(5-chloro-2-(4-(4-(2-hydroxyethyl)piperazin-1-yl)phenylamino)pyrimidin-4-ylamino)-N,2,6,6-tetramethylbicyclo[3.1.1]heptane-3-carboxamide] was tested, and the IC50 was < 1000 nM.
`CNC(=O)[C@H]1C[C@H]2C[C@H](C2(C)C)[C@@]1(C)Nc1nc(Nc2ccc(N3CCN(CCO)CC3)cc2)ncc1C` [Compound 42, (1R,2R,3S,5R)-2-(5-methyl-2-(4-(4-(2-hydroxyethyl)piperazin-1-yl)phenylamino)pyrimidin-4-ylamino)-N,2,6,6-tetramethylbicyclo[3.1.1]heptane-3-carboxamide] gave an IC50 of 1000 to 10000 nM.
For `CNC(=O)[C@H]1C[C@H]2C[C@H](C2(C)C)[C@@]1(C)Nc1nc(Nc2ccc(N3CCN(C)CC3)c(F)c2)ncc1C` [Compound 43, (1R,2R,3S,5R)-2-(5-methyl-2-(3-fluoro-4-(4-methylpiperazin-1-yl)phenylamino)pyrimidin-4-ylamino)-N,2,6,6-tetramethylbicyclo[3.1.1]heptane-3-carboxamide], the IC50 was < 1000 nM.
Molecule `CNC(=O)[C@H]1C[C@H]2C[C@H](C2(C)C)[C@@]1(C)Nc1nc(Nc2ccc(N3CCC(F)(F)CC3)c(F)c2)ncc1C` [Compound 44, (1R,2R,3S,5R)-2-(5-methyl-2-(3-fluoro-4-(4,4-difluoropiperidin-1-yl)phenylamino)pyrimidin-4-ylamino)-N,2,6,6-tetramethylbicyclo[3.1.1]heptane-3-carboxamide] has an IC50 of 1000 to 10000 nM.

Same assay, conditions: Table 3, formula (Ic); Hela cells, Axl antibody cross-linking stimulation, phospho-Akt chemiluminescence normalized to relative cell number
`CCN(CC)CCN1CCOc2cc(Nc3ncc(Cl)c(N[C@@]4(C)[C@@H](C(=O)NC)C[C@H]5C[C@@H]4C5(C)C)n3)ccc21` [Compound 45, (1R,2R,3S,5R)-2-(5-chloro-2-((3,4-dihydro-4-(2-(diethylamino)ethyl)-2H-benzo[b][1,4]oxazin-7-yl)amino)pyrimidin-4-ylamino)-N,2,6,6-tetramethylbicyclo[3.1.1]heptane-3-carboxamide] was tested, and the IC50 was < 1000 nM.
With `CCN(CC)CCN1CCOc2cc(Nc3ncc(F)c(N[C@@]4(C)[C@@H](C(=O)NC)C[C@H]5C[C@@H]4C5(C)C)n3)ccc21` [Compound 46, (1R,2R,3S,5R)-2-(5-fluoro-2-((3,4-dihydro-4-(2-(diethylamino)ethyl)-2H-benzo[b][1,4]oxazin-7-yl)amino)pyrimidin-4-ylamino)-N,2,6,6-tetramethylbicyclo[3.1.1]heptane-3-carboxamide] the IC50 was < 1000 nM.
With `CNC(=O)[C@H]1C[C@H]2C[C@H](C2(C)C)[C@@]1(C)Nc1nc(Nc2ccc3c(c2)OCCN3CCN(C)C)ncc1Cl` [Compound 47, (1R,2R,3S,5R)-2-(5-chloro-2-((3,4-dihydro-4-(2-(dimethylamino)ethyl)-2H-benzo[b][1,4]oxazin-7-yl)amino)pyrimidin-4-ylamino)-N,2,6,6-tetramethylbicyclo[3.1.1]heptane-3-carboxamide] the IC50 was < 1000 nM.
`CNC(=O)[C@H]1C[C@H]2C[C@H](C2(C)C)[C@@]1(C)Nc1nc(Nc2ccc3c(c2)OCCN3CCN(C)C)ncc1F` [Compound 48, (1R,2R,3S,5R)-2-(5-fluoro-2-((3,4-dihydro-4-(2-(dimethylamino)ethyl)-2H-benzo[b][1,4]oxazin-7-yl)amino)pyrimidin-4-ylamino)-N,2,6,6-tetramethylbicyclo[3.1.1]heptane-3-carboxamide] gave an IC50 of 1000 to 10000 nM.
`CNC(=O)[C@H]1C[C@H]2C[C@H](C2(C)C)[C@@]1(C)Nc1nc(Nc2ccc3c(c2)OCCN3CCN(C)C)ncc1C` [Compound 49, (1R,2R,3S,5R)-2-(5-methyl-2-((3,4-dihydro-4-(2-(dimethylamino)ethyl)-2H-benzo[b][1,4]oxazin-7-yl)amino)pyrimidin-4-ylamino)-N,2,6,6-tetramethylbicyclo[3.1.1]heptane-3-carboxamide] showed an IC50 of 1000 to 10000 nM.
With `CNC(=O)[C@H]1C[C@H]2C[C@H](C2(C)C)[C@@]1(C)Nc1nc(Nc2ccc3c(c2)N(CCN(C)C)CCO3)ncc1Cl` [Compound 50, (1R,2R,3S,5R)-2-(5-chloro-2-((3,4-dihydro-4-(2-(dimethylamino)ethyl)-2H-benzo[b][1,4]oxazin-6-yl)amino)pyrimidin-4-ylamino)-N,2,6,6-tetramethylbicyclo[3.1.1]heptane-3-carboxamide] the IC50 was 1000 to 10000 nM.
